Laboratory results: patent US8263605B2, “Modulators of muscarinic receptors” (Vertex Pharmaceutical Incorporated, priority 2006, dated 2012)

Assays:
[1] = molecular target: T1, M1 muscarinic receptor (Homo sapiens, UniProt P11229); test: Functional mobilization of intracellular calcium (FLIPR), M1-CHO cells; assay type: cell-based; details: for Emax: 100% efficacy is the maximum response obtained with the Carbachol control; for M1 Activity: CHO cells expressing M1, calcium mobilization
T1 construct: expressed in transfected cells; host or cells: CHO (M1-CHO)
T1 sequence (P11229 1-460): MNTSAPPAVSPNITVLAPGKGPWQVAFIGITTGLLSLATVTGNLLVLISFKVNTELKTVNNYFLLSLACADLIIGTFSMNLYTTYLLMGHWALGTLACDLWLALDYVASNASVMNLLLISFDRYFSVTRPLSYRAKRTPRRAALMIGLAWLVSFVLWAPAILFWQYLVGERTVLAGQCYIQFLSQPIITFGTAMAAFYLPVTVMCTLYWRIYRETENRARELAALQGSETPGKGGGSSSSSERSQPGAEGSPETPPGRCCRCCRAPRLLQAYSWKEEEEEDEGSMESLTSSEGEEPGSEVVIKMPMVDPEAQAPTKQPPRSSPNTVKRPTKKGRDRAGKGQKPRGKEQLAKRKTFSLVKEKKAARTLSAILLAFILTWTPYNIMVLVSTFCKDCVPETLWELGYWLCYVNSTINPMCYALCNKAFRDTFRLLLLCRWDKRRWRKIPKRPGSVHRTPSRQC
Description: (§1) Functional Mobilization of Intracellular Calcium to Determine Muscarinic Receptor Activity:
(§2) CHO cells expressing muscarinic receptors (M1 to M5) are grown as monolayers in tissue culture flasks at 37° C. in a humidified atmosphere containing 5% CO2 and passaged every 3-5 days. The growth media is Dulbecco's modified eagles medium (DMEM, Gibco Cat#12430-054), containing 25 mM Hepes and supplemented with Fetal Bovine Serum (Hyclone, cat# SH30071.03), 0.1 mM of MEM non-essential amino acids (GIBCO, Cat#11140-050), 1 mM MEM Sodium Pyruvate (GIBCO Cat#11360-070) and 100 units/ml of Penicillin G and 100 μg/ml of Streptomycin (GIBCO Cat#15140-122). The recombinant muscarinic receptor cell lines are grown under antibiotic pressure with media containing 25 μg/ml zeocin and 500 μg/ml G418 (M1-CHO), 4 μg/ml puromycin, 50 μg/ml zeocin and 2.5 μg/ml blasticidin (M2 and M4-CHO) or 50 μg/ml zeocin and 4 μg/ml puromycin (M3 and M5-CHO).
(§3) Cells are harvested at 80-90% confluence using Versene (GIBCO Cat#15040-066), collected by centrifugation and seeded 18-24 hours prior to running the calcium assay at a density of 5,000-10,000 cells/well in […], clear-bottomed 384-well plates (BD Biocoat, poly-D-lysine, Cat#356663). The day of the experiment, the cells are washed with a plate washer (Bioteck Instrunents, ELX 405) using bath 1 buffer (140-mM NaCl, 4.5-mM KCl, 2-mM CaCl2, 1-mM MgCl2, 10-mM Hepes-Na, 10-mM Glucose, pH 7.4, with NaOH) containing 1 mM Probenecid. Next, the calcium dye Fluo-3 (25 μl/well of Fluo-3 AM at 4 μM, Molecular Probes F-1241, in Bath 1 buffer containing 1 mM Probenecid) is added to the 25 μl of Bath 1 remaining in each well after the plate wash and the dye is loaded at 37° C. in the tissue culture incubator for 60-90 min. The fluorescent dye is removed using the plate washer with Bath 1 containing 1 mM Probenecid, leaving 25 μl/well of this solution after the wash. Alternatively, cells can be loaded with the calcium indicator from Molecular Devices (Calcium 3 Assay Reagents, Cat # R7181) adding 5 μl of a 5× solution dye in Bath 1 containing 1 mM Probenecid (10 ml per dye flask cat# R7182 to generate a solution 20×) to 20 μl of the same buffer. After loading for 60 min, the experiment can be run without having to remove the dye.
(§4) Compounds are prepared at a 2× fold concentration in a 96-well plate (round bottom, Costar Corning cat#3656), by reconstituting the pre-spotted compounds in bath 1 containing 1 mM probenecid. The final concentration DMSO is 0.5%, and the amount of DMSO is normalized across the assay plate. To determine an agonist action of the compounds on muscarinic receptors, the reconstituted compounds are added (25 μl compound/well) to the cell assay plate (containing 25 μl/well) using the multi-channel robotic system of the FLIPR 3 Instrument (Molecular Devices, Sunnyvale, Calif.). To determine a functional inhibitory action of the compounds on muscarinic receptors, the reconstituted compounds are added (25 μl compound/well) to the assay plate and pre-incubated for 15 min prior to adding 25 μl of Carbachol at 3× the EC80 for each muscarinic subtype. Alternatively, the compounds can be co-applied simultaneously with the agonist. In both assay modes, the fluorescence is recorded for 60 sec (excitation wavelength is […] and emission wavelength 540 nm) using the FLIPR 3 instrument.
(§5) The potency, efficacy and selectivity of the muscarinic compounds were evaluated by screening the compound activity across the whole family (M1 to M5 cells). Compounds were also screened for activity on other proteins such as other GPCRs and ion channels to determine selectivity on M4 receptors.
(§6) Examples of activities and efficacies of the muscarinic compounds of formulae (I, Ia, Ib, Ic, Id, and Ie) on modulating M1 and M4 receptors are shown below in Table 4. […]

[2] = molecular target: T2, M4 muscarinic receptor (Homo sapiens, UniProt P08173); test: Functional mobilization of intracellular calcium (FLIPR), M4-CHO cells; assay type: cell-based; details: for Emax: 100% efficacy is the maximum response obtained with the Carbachol control; for M4 Activity: CHO cells expressing M4, calcium mobilization
T2 construct: expressed in transfected cells; host or cells: CHO (M4-CHO)
T2 sequence (P08173 1-479): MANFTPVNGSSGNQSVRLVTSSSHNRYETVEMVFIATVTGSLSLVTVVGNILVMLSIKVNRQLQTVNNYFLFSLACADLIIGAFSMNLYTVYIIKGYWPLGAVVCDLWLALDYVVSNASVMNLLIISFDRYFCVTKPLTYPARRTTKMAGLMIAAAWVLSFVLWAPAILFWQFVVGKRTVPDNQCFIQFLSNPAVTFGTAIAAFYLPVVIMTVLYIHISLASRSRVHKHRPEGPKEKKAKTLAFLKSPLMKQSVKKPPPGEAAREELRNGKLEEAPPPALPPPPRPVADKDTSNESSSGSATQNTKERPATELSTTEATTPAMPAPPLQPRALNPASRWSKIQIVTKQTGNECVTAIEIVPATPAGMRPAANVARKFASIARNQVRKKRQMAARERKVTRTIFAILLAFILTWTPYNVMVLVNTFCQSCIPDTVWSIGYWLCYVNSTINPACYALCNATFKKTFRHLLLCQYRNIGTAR
Description: as §1, §2, §3, §4, §5, §6

SMILES | Emax [1] [%] | M1 Activity [1] | Emax [2] [%] | M4 Activity [2]
C#CCOC(=O)N1CC[C@H](CN2CCC3(CC2)CN(C(=O)N(C)C)c2ccccc23)C1 [compound 100] | 25 to 100 | +++ (activity was measured to be less than 2.0 μM) | 25 to 100 | +++ (activity was measured to be less than 2.0 μM)
CC(=O)N1CCC2(CCN(C3CCN(c4nc(C)ns4)CC3)CC2)c2ccccc21 [compound 15] | 25 to 100 | +++ (activity was measured to be less than 2.0 μM) | 25 to 100 | +++ (activity was measured to be less than 2.0 μM)
CCCOC(=O)N1CC[C@H](CN2CCC3(CC2)CN(C(=O)N(C)C)c2ccccc23)C1 [compound 61] | < 25 | ++ (activity was measured to be from 2.0 μM to 10.0 μM) | 25 to 100 | +++ (activity was measured to be less than 2.0 μM)
COC(=O)N1C2CCC1CC(N1CCC3(CC1)CN(C(=O)N(C)C)c1ccccc13)C2 (stereo not drawn) [compound 45] | 25 to 100 | ++ (activity was measured to be from 2.0 μM to 10.0 μM) | 25 to 100 | +++ (activity was measured to be less than 2.0 μM)
CN(C)C(=O)N1CC2(CCN(C3CC4CCC(C3)N4c3cnccn3)CC2)c2ccccc21 (stereo not drawn) [Compound No. 103, N,N-dimethyl-1′-(8-(pyrazin-2-yl)-8-azabicyclo[3.2.1]octan-3-yl)spiro[indoline-3,4′-piperidine]-1-carboxamide] | 25 to 100 | +++ (activity was measured to be less than 2.0 μM) | > 100 | +++ (activity was measured to be less than 2.0 μM)
CN(C)C(=O)N1CC2(CCN(C[C@H]3CCN(c4cnccn4)C3)CC2)c2ccccc21 [compound 108] | 25 to 100 | +++ (activity was measured to be less than 2.0 μM) | > 100 | +++ (activity was measured to be less than 2.0 μM)
CCC#CCOC(=O)N1CCC(N2CCC3(CCN(C(C)=O)c4ccccc43)CC2)CC1 [compound 14] | 25 to 100 | +++ (activity was measured to be less than 2.0 μM) | 25 to 100 | +++ (activity was measured to be less than 2.0 μM)
CN(C)C(=O)N1CC2(CCN(C[C@@H]3CCN(C(=O)OCC(F)F)C3)CC2)c2ccccc21 [compound 57] | 25 to 100 | +++ (activity was measured to be less than 2.0 μM) | 25 to 100 | +++ (activity was measured to be less than 2.0 μM)
CC(=O)N1CCC2(CCN(C3CCN(c4nccs4)CC3)CC2)c2ccccc21 [compound 24] | 25 to 100 | ++ (activity was measured to be from 2.0 μM to 10.0 μM) | < 25 | ++ (activity was measured to be from 2.0 μM to 10.0 μM)
CC#CCOC(=O)N1CCC(N2CCC3(CCN(C(=O)N(C)C)c4ccccc43)CC2)CC1 [Compound No. 5, but-2-ynyl 4-(1′-(dimethylcarbamoyl)-2′,3′-dihydro-1′H-spiro[piperidine-4,4′-quinoline]-1-yl)piperidine-1-carboxylate] | 25 to 100 | +++ (activity was measured to be less than 2.0 μM) | 25 to 100 | +++ (activity was measured to be less than 2.0 μM)
CN(C)C(=O)N1CC2(CCN(C[C@@H]3CCN(C(=O)OC4CCOC4)C3)CC2)c2ccccc21 (stereo partly drawn) [compound 110] | < 25 | ++ (activity was measured to be from 2.0 μM to 10.0 μM) | < 25 | ++ (activity was measured to be from 2.0 μM to 10.0 μM)
CC(=O)N1CCC2(CCN(C3CCNCC3)CC2)c2ccccc21 [compound 34] | < 25 | + (activity was measured to be greater than 10.0 μM) | < 25 | ++ (activity was measured to be from 2.0 μM to 10.0 μM)
CCc1nsc(N2CC[C@@H](CN3CCC4(CC3)CN(C(=O)N(C)C)c3ccccc34)C2)n1 [compound 86] | 25 to 100 | +++ (activity was measured to be less than 2.0 μM) | 25 to 100 | +++ (activity was measured to be less than 2.0 μM)
Cc1cncc(N2CCC(N3CCC4(CC3)CN(C(=O)N(C)C)c3ccccc34)CC2)n1 [compound 79] | 25 to 100 | +++ (activity was measured to be less than 2.0 μM) | 25 to 100 | +++ (activity was measured to be less than 2.0 μM)
CCOC(=O)N1CC[C@@H](CN2CCC3(CC2)CN(C(=O)N(C)C)c2ccccc23)C1 [compound 96] | 25 to 100 | +++ (activity was measured to be less than 2.0 μM) | > 100 | +++ (activity was measured to be less than 2.0 μM)
CN(C)C(=O)N1CC2(CCN(C3CCN(c4nc5ccccc5s4)CC3)CC2)c2ccccc21 [compound 117] | < 25 | + (activity was measured to be greater than 10.0 μM) | < 25 | ++ (activity was measured to be from 2.0 μM to 10.0 μM)
CN(C)C(=O)N1CC2(CCN(C3CCN(c4nc5ccccc5o4)CC3)CC2)c2ccccc21 [compound 118] | 25 to 100 | ++ (activity was measured to be from 2.0 μM to 10.0 μM) | < 25 | ++ (activity was measured to be from 2.0 μM to 10.0 μM)
CC(C)OC(=O)N1CC[C@@H](CN2CCC3(CC2)CN(C(=O)N(C)C)c2ccccc23)C1 [compound 56] | 25 to 100 | ++ (activity was measured to be from 2.0 μM to 10.0 μM) | 25 to 100 | +++ (activity was measured to be less than 2.0 μM)
